ChEMBL document CHEMBL1152560, “Substituted 2-arylbenzothiazoles as kinase inhibitors: hit-to-lead optimization” (Bioorg Med Chem, 2009)

Experiments:
[1] = target: Platelet-derived growth factor receptor beta (Homo sapiens, UniProt P09619); experiment: Residual activity of PDGFRbeta at 10 uM by microplate scintillation counting
[2] = target: T1, Serine/threonine-protein kinase Sgk3 (Homo sapiens) (UniProt Q96BR1); experiment: Residual activity of SGK3 at 10 uM by microplate scintillation counting
T1 sequence (whole entry): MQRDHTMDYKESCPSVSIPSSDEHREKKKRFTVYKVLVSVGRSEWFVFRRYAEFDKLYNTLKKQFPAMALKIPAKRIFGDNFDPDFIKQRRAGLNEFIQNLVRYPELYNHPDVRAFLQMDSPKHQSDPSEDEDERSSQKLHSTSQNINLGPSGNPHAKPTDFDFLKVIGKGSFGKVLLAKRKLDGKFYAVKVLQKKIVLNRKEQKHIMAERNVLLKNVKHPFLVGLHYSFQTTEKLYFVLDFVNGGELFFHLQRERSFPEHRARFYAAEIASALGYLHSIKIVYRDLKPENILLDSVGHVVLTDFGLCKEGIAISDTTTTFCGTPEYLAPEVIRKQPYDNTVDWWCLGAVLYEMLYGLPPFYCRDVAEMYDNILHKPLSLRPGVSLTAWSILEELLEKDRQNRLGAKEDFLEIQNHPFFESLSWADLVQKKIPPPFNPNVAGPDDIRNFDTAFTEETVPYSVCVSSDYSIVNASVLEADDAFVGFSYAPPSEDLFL

[3] = target: Serine/threonine-protein kinase 16 (Homo sapiens) (UniProt O75716); experiment: Residual activity of TSF1 at 10 uM by microplate scintillation counting
[4] = target: Leukocyte tyrosine kinase receptor (Homo sapiens) (UniProt P29376); experiment: Residual activity of LTK at 10 uM by microplate scintillation counting
[5] = target: Casein kinase I isoform gamma-2 (Homo sapiens) (UniProt P78368); experiment: Residual activity of CK1gamma2 at 10 uM by microplate scintillation counting
Casein kinase I isoform gamma-2 (Homo sapiens), sequence (P78368 whole entry, looked up, canonical isoform): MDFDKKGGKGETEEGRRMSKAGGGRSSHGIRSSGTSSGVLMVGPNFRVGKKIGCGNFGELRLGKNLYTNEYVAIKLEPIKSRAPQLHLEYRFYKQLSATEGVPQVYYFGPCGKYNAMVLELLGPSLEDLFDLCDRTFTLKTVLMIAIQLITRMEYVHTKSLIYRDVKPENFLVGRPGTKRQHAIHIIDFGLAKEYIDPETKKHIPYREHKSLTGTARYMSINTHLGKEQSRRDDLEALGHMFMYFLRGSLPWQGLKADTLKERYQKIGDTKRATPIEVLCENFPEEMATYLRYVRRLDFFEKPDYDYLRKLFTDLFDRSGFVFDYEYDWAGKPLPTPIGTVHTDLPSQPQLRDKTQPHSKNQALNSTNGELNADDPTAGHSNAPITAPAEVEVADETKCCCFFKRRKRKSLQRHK

[6] = target: Serine/threonine-protein kinase PAK 5 (Homo sapiens) (UniProt Q9P286); experiment: Residual activity of PAK7 at 0.1 uM by microplate scintillation counting
[7] = target: Hepatocyte growth factor receptor (Homo sapiens) (UniProt P08581); experiment: Residual activity of MET at 1 uM by microplate scintillation counting
Hepatocyte growth factor receptor (Homo sapiens), sequence (P08581 whole entry): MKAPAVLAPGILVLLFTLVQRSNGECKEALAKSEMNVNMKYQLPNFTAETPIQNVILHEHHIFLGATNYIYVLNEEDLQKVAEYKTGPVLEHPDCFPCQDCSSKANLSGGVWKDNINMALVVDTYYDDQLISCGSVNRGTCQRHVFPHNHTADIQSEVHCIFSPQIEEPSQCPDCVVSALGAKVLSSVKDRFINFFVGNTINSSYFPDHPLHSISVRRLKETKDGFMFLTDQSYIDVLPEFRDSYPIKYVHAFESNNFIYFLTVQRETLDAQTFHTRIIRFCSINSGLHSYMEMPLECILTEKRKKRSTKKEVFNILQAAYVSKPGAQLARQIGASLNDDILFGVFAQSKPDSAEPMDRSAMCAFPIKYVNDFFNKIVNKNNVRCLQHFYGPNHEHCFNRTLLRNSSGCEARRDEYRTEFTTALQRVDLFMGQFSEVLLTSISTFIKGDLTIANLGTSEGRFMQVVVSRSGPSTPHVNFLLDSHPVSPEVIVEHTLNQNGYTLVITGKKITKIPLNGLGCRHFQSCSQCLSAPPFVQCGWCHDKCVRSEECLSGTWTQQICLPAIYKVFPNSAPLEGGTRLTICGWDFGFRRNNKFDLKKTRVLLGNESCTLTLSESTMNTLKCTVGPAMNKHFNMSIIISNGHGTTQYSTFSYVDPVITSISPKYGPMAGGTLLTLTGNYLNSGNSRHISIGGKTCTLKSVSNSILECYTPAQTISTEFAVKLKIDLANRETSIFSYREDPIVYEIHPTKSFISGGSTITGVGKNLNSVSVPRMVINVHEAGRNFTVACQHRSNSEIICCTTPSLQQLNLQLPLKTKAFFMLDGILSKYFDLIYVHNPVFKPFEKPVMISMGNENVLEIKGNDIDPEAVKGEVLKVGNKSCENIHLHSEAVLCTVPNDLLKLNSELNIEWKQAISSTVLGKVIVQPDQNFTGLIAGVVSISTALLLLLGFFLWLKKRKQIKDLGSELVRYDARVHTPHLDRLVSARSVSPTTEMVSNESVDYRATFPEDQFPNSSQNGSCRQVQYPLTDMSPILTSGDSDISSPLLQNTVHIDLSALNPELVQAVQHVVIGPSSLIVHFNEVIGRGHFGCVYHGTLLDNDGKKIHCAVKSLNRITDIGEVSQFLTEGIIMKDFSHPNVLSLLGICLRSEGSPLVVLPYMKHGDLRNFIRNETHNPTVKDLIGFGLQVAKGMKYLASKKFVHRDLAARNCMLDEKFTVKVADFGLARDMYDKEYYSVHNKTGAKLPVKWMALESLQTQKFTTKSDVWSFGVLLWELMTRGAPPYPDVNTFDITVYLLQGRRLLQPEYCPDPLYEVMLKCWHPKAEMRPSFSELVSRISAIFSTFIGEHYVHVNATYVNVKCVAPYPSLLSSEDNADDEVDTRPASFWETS

[8] = target: Cyclin-dependent kinase 5/CDK5 activator 1 (Homo sapiens) (UniProt Q00535+Q15078); experiment: Residual activity of CDK5/p25NCK at 0.1 uM by microplate scintillation counting; assay type: protein-complex assay
Cyclin-dependent kinase 5/CDK5 activator 1 (Homo sapiens), sequence (Q00535 whole entry): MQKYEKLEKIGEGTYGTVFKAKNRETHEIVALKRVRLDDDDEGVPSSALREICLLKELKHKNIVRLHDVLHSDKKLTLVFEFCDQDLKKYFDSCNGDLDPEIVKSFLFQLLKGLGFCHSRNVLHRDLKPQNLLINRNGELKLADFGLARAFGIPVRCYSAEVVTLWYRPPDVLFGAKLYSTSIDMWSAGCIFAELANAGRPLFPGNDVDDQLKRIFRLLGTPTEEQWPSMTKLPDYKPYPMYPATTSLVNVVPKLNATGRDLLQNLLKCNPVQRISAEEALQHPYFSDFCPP
Cyclin-dependent kinase 5/CDK5 activator 1 (Homo sapiens), sequence (Q15078 99-307 partner limits assumed): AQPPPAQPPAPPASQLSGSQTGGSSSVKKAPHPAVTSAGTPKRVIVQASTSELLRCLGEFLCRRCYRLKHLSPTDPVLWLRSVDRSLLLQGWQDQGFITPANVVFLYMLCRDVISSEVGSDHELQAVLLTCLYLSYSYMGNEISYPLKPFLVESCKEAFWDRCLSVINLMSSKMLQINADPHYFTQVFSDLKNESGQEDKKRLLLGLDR

[9] = Residual activity of S6K at 10 uM by microplate scintillation counting
[10] = target: Serine/threonine-protein kinase pim-2 (Homo sapiens) (UniProt Q9P1W9); experiment: Residual activity of PIM2 at 10 uM by microplate scintillation counting
Serine/threonine-protein kinase pim-2 (Homo sapiens), sequence (Q9P1W9 whole entry, looked up): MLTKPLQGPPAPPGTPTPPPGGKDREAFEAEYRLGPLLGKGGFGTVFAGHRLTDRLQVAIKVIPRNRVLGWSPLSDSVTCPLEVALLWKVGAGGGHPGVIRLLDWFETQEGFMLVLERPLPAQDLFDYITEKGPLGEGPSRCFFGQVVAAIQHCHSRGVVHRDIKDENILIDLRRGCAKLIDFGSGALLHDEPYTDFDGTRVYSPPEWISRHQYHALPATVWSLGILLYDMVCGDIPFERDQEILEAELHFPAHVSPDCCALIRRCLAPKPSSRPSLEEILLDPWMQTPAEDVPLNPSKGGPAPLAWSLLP

[11] = target: Vascular endothelial growth factor receptor 3 (Homo sapiens, UniProt P35916); experiment: Residual activity of VEGFR3 at 1 uM by microplate scintillation counting
Vascular endothelial growth factor receptor 3, sequence (P35916 whole entry): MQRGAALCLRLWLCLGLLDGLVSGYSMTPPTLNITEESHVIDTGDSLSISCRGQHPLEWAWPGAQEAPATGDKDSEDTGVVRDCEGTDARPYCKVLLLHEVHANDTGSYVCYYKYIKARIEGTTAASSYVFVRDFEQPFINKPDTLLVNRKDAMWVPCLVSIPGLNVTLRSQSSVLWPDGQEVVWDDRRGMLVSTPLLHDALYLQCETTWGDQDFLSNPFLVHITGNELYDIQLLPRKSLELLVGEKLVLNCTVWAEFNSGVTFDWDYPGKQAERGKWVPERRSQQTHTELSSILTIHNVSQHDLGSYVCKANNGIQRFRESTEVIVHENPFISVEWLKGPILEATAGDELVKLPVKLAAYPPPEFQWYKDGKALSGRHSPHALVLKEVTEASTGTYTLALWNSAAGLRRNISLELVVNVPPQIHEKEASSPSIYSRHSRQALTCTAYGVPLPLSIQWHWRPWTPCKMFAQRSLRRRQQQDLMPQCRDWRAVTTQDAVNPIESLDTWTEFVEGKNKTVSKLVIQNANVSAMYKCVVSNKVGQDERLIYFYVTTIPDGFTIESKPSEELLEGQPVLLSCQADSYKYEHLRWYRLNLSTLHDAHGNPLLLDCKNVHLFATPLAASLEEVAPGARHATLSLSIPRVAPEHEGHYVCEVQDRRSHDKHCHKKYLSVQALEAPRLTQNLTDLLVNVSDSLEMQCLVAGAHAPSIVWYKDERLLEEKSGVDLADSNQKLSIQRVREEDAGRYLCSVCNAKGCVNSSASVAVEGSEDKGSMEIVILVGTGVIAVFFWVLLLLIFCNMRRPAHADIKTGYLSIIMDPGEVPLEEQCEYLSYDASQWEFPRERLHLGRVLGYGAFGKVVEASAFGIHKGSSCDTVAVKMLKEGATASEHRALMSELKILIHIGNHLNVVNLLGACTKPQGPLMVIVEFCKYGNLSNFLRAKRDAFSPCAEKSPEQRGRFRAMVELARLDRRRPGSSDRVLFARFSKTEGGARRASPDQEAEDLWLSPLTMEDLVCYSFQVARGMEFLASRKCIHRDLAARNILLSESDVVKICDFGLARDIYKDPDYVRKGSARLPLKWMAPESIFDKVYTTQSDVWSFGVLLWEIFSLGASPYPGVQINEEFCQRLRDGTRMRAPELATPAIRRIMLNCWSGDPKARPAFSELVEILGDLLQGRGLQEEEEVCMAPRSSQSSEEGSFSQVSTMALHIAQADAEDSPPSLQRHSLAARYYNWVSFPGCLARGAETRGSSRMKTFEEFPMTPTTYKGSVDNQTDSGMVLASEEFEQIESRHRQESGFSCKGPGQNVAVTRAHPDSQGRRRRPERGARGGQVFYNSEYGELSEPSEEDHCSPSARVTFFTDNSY

[12] = target: T2, Ephrin type-A receptor 3 (Homo sapiens) (UniProt P29320); experiment: Residual activity of EPHA3 at 10 uM by microplate scintillation counting
T2 sequence (whole entry): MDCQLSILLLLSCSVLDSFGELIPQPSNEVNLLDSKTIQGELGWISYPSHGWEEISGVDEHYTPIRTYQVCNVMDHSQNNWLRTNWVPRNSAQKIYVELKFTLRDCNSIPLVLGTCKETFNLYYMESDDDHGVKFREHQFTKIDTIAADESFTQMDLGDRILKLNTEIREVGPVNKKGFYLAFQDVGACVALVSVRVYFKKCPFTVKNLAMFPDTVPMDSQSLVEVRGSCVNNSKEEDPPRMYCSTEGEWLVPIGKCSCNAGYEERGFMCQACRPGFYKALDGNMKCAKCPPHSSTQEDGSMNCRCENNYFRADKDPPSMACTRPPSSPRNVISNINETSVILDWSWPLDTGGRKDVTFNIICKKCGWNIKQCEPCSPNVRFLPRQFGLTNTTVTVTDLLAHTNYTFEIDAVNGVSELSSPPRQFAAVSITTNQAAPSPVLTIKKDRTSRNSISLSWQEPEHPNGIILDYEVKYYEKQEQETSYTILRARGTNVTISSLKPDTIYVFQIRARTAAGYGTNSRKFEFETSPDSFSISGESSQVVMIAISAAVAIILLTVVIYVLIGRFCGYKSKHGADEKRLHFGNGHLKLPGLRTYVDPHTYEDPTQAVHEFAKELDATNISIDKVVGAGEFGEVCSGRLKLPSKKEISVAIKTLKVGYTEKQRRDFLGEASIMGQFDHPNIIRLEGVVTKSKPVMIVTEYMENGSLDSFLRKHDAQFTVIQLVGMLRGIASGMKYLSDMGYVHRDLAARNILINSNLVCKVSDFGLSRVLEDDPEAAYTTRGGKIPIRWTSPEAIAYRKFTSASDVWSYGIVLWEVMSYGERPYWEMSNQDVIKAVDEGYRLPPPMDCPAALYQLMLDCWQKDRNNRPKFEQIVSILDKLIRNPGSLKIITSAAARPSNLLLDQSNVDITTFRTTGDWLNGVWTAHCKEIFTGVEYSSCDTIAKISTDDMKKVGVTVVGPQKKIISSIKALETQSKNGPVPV

[13] = target: Platelet-derived growth factor receptor alpha (Homo sapiens) (UniProt P16234); experiment: Residual activity of PDGFRalpha at 1 uM by microplate scintillation counting
Platelet-derived growth factor receptor alpha (Homo sapiens), sequence (P16234 whole entry): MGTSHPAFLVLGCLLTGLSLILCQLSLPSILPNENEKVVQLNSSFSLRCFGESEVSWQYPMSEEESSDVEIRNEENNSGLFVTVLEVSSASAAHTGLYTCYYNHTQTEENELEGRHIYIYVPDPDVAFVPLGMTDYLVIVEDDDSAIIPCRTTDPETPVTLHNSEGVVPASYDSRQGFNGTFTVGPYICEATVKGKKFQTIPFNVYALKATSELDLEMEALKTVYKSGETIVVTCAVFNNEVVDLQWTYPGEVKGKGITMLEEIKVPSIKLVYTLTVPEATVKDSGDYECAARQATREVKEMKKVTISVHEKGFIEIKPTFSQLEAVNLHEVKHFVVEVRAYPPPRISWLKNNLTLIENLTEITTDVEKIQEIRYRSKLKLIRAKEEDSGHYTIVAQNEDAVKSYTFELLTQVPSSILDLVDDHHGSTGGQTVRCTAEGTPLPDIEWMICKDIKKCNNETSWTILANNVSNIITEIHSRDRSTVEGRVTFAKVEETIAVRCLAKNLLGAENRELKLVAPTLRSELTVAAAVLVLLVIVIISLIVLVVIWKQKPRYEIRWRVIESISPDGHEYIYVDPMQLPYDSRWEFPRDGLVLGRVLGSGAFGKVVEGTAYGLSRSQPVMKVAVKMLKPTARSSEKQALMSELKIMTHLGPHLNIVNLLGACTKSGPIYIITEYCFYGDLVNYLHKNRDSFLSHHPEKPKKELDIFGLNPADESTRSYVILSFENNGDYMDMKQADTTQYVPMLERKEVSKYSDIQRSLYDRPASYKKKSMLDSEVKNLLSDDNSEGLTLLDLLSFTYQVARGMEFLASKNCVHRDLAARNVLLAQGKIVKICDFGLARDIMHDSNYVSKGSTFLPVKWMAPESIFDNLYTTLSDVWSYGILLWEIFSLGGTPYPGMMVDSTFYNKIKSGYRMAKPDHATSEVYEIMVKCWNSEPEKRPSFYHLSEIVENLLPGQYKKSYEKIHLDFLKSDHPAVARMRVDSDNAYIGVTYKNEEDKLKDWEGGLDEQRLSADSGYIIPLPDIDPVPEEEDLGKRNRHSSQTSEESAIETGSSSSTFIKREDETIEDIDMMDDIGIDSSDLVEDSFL

[14] = target: Tyrosine-protein kinase Fer (Homo sapiens) (UniProt P16591); experiment: Residual activity of FER at 10 uM by microplate scintillation counting
[15] = target: T3, Serine/threonine-protein kinase Nek3 (Homo sapiens) (UniProt P51956); experiment: Residual activity of NEK3 at 10 uM by microplate scintillation counting
T3 sequence (whole entry): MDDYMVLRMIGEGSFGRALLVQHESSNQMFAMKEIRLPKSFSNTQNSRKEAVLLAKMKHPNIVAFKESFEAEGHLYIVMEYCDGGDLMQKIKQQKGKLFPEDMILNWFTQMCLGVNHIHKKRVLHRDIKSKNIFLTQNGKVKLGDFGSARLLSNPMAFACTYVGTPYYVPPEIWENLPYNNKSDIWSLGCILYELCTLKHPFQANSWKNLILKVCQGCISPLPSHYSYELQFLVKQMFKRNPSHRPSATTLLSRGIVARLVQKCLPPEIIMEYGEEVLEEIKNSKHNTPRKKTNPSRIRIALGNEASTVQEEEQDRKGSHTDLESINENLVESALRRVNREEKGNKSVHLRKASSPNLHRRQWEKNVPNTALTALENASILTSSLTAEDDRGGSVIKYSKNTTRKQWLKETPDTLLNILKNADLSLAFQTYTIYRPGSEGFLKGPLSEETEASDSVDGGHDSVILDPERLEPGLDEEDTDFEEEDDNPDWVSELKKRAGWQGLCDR

residual activity [1] | residual activity [2] | residual activity [3] | residual activity [4] | residual activity [5] | residual activity [6] | residual activity [7] | residual activity [8] | residual activity [9] | residual activity [10] | residual activity [11] | residual activity [12] | residual activity [13] | residual activity [14] | residual activity [15] | SMILES
43% | 98% | 56% | 200% | 198% | 92% | 74% | 90% | 37% | 113% | 32% | 182% | 59% | 73% | 154% | COc1cc2c(Oc3ccc(-c4nc5ccccc5s4)cc3)ncnc2cc1OCCCN1CCCC1
21% | 112% | 66% | 163% | 217% | 80% | 59% | 78% | 29% | 73% | 34% | 236% | 57% | 79% | 145% | COc1cc2c(Oc3ccc(-c4nc5ccccc5s4)cc3)ncnc2cc1OCCCN1CCN(C)CC1
33% | 97% | 59% | 89% | 226% | 84% | 53% | 87% | 36% | 85% | 30% | 143% | 73% | 16% | 132% | COc1cc2c(Oc3ccc(-c4nc5ccccc5s4)cc3F)ncnc2cc1OCCCN1CCN(C)CC1
